Drawing on patent publication US6689806B1, “Indolinone compounds as kinase inhibitors” (Sugen, Inc., priority 1999, dated 2004), this text covers IC50 for 22 compounds.

Where two headings read alike, the source gives them in different places.

For assay [1], the target named is T1, EGFR (Homo sapiens, UniProt P00533). Nature of the assay: EGF-induced BrdU incorporation assay. Set-up: expressed in transfected cells; host or cells: 3T3. As to conditions: 3T3 cells expressing human EGF-R, EGF 2 nM, read-out: BrdU DNA syn. EGFr IC50. Format: cell-based. The protocol:
The cellular/biologic assays described herein measure the amount of DNA made in response to activation of a test kinase, which is a general measure of a proliferative response. The general procedure for this assay is as follows: a compound is introduced to cells expressing the test kinase, either naturally or recombinantly, for some period of time after which, if the test kinase is a receptor, a ligand known to activate the receptor is added. After incubation at least overnight, a DNA labeling reagent such as Bromodeoxy-uridine (BrdU) or 3H-thymidine is added. The amount of labeled DNA is detected with either an anti-BrdU antibody or by measuring radioactivity and is compared to control cells not contacted with a test compound.
EGF-Induced BrdU Incorporation Assay
(8) 3T3 cell line genetically engineered to express human EGF-R.
(1) Cells are seeded at 8000 cells/well in 10% CS, 2 mM Gin in DMEM, in a 96 well plate. Cells are incubated overnight at 37° C. in 5% CO2.
(2) After 24 hours, the cells are washed with PBS, and then are serum starved in serum free medium (0% CS DMEM with 0.1% BSA) for 24 hours.
(3) On day 3, ligand (EGF, 2 nM, prepared in DMEM with 0.1%/BSA) and test compounds are added to the cells simultaneously. The negative control wells receive serum free DMEM with 0.1% BSA only; the positive control cells receive the ligand (EGF) but no test compound. Test compounds are prepared in serum free DMEM with ligand in a 96 well plate, and serially diluted for 7 test concentrations.
(4) After 20 hours of ligand activation, diluted BrdU labeling reagent (1: 100 in DMEM, 0.1% BSA) is added and the cells are incubated with BrdU (final concentration=10 μM) for 1.5 hours.
(10) The absorbance of the samples are measured at 410 nm (in “dual wavelength” mode with a filter reading at 490 nm, as a reference wavelength) on a Dynatech ELISA plate reader.

The target of the next assay is PDGFR (Homo sapiens, UniProt P09619). Kind of assay: Biochemical PDGFR assay (ELISA). More on the design: expressed in transfected cells; host or cells: NIH 3T3. Conditions: read-out: PDGFr biochem IC50. The method in brief:
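PDGFR-β from NIH 3T3 cell lysate captured on 28D4C10-coated plates; compound preincubated 30 min, then 20 μM ATP for 30 min at room temperature and stopped with EDTA. Phosphotyrosine detected by anti-phosphotyrosine ELISA with peroxidase secondary and ABTS, read at 410 nm.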
A general note: An ELISA detects its analyte on a solid surface through an enzyme-linked reagent.

For assay [2], the target named is T1, EGFR. Nature of the assay: Biochemical EGFR assay (ELISA). Set-up: A431 cell lysate; endogenous in cells; host or cells: A431. Conditions: read-out: EGFr biochem IC50. The method in brief: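 EGFR is captured from cell lysate onto SUMO1-coated plates and incubated with compound diluted in TBS. The kinase reaction is stopped after 5 min with EDTA. Substrate phosphotyrosine is detected with anti-phosphotyrosine and peroxidase-linked secondary antibody, then ABTS/H2O2 read at 410 nm (reference 630 nm).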

The subject of the next assay is SKOV3. Kind of assay: SKOV3 growth. Format: cell-based. Conditions: Homo sapiens, SK-OV-3, SKOV3 cells.
The subject of a further assay is A431. Nature of the assay: A431 growth. It is filed as cell-based. As to conditions: Homo sapiens, A-431, A431 cells.
The mark [3] stands for this setting: Table 7, in vitro kinase activity.
Where [4] appears, read: Table 5, in vitro kinase activity.

T1 sequence (P00533 25-1210): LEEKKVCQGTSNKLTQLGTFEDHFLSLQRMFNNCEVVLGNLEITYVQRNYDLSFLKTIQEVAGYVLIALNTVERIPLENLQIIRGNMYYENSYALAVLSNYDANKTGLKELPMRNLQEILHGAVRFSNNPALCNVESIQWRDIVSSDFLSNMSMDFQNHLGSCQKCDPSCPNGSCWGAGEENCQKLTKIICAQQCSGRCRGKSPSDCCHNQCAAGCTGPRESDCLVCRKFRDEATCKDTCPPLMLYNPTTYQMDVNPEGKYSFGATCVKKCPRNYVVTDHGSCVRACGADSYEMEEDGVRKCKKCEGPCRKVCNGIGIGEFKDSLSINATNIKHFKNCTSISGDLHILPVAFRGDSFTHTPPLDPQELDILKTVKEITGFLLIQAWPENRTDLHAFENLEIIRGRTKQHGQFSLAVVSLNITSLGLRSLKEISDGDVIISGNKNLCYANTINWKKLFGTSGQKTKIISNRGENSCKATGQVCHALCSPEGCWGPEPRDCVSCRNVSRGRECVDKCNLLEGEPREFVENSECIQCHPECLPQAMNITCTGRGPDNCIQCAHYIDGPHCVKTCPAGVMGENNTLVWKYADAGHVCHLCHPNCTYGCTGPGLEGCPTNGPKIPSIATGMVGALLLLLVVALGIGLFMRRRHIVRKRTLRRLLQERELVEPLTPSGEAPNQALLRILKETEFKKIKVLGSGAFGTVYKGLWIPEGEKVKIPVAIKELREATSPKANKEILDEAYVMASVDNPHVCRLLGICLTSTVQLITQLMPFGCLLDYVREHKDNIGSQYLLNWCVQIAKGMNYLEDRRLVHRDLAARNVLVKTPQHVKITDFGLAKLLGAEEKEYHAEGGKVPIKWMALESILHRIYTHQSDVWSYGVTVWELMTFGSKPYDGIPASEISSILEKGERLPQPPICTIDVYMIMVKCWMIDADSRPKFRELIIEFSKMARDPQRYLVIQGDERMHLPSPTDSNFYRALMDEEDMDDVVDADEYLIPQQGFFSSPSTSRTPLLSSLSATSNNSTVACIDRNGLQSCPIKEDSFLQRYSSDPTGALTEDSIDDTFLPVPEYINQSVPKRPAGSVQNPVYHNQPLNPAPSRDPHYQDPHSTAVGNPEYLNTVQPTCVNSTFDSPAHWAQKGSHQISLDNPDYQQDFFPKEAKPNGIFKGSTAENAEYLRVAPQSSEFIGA
PDGFR, sequence (P09619 33-1106): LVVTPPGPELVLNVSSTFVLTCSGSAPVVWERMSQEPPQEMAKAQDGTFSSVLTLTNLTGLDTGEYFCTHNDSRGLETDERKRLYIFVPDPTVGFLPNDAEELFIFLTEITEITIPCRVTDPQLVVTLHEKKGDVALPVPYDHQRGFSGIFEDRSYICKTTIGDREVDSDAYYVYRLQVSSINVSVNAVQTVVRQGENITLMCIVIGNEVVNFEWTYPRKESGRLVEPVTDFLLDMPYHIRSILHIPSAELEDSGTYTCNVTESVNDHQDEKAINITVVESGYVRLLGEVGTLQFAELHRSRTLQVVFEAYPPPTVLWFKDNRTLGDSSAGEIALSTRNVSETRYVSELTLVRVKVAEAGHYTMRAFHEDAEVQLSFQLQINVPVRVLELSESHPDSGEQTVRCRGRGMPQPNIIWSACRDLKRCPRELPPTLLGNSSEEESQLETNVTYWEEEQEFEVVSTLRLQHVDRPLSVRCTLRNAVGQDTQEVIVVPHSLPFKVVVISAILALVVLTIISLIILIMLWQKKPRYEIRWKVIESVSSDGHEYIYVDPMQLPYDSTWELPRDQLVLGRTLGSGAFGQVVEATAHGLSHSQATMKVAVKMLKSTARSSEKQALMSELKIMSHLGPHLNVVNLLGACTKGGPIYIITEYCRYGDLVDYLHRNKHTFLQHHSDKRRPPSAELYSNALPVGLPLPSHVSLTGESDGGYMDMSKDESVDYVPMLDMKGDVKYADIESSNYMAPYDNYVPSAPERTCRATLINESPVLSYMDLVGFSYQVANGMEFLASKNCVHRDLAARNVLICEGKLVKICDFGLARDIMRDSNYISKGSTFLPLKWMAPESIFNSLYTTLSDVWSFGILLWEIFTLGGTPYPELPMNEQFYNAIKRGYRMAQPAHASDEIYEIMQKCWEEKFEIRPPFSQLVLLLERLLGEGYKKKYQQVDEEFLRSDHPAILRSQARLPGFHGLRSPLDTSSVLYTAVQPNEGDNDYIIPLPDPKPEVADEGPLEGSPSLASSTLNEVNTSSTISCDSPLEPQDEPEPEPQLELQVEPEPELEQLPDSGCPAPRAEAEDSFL

As a reminder, the IC50 is the concentration at which inhibition is half-maximal. As to `Cc1ccc(O)c(C=C2C(=O)Nc3cccc(CCO)c32)n1` (racemic) [IN-022, 4-(2-Hydroxy-ethyl)-3-(3-hydroxy-6-methyl-pyridin-2-ylmethylene)-1,3-dihydro-indol-2-one], the IC50 was over 50 µM on EGFR [1] (Table 7), over 100 µM on PDGFR (setting [3]) and over 100 µM on EGFR [2] (setting [3]).

Regarding `COc1ccc(CC2C(=O)Nc3ccc(F)cc32)cc1C1CCCC1` (stereo not shown) [AAI-5, 3-(3-Cyclopentyl-4-methoxybenzyl)-5-fluoro-1,3-dihydroindol-2-one], the IC50 in the assay with SKOV3 (Table 5) is 17.9 µM; in the assay with A431 (Table 5), 5.26 µM; at EGFR [1] (Table 5), 30 µM; on PDGFR (setting [4]) it was over 100 µM; on EGFR [2] (setting [4]), over 100 µM.

In the case of `COc1ccc(CC2C(=O)Nc3cc(NC(C)=O)ccc32)cc1-c1cccs1` (stereo not shown) [AAI-6, N-[3-(4-Methoxy-3-thiophen-2-ylbenzyl)-2-oxo-2,3-dihydro-1H-indol-6-yl]-acetamide], the IC50 at EGFR [1] (Table 5) is over 50 µM; at PDGFR (setting [4]), over 100 µM; on EGFR [2] (setting [4]), over 100 µM.

In the case of `CC(=O)Nc1ccc2c(c1)NC(=O)C2Cc1ccc(OCCN2CCOCC2)c(C2CCCCC2)c1` (stereo not shown) [AAI-7, N-{3-[3-Cyclohexyl-4-(2-morpholin-4-ylethoxy)-benzyl]-2-oxo-2,3-dihydro-1H-indol-6-yl}-acetamide], the half-maximal inhibitory concentration (IC50) at EGFR [1] (Table 5) is 28.1 µM; at PDGFR (setting [4]) it was over 100 µM; at EGFR [2] (setting [4]), over 100 µM.

With `COc1ccc(CC2C(=O)Nc3ccc(CCN4CCOCC4)cc32)cc1-c1ccsc1` (stereo not shown) [AAI-8, 3-(4-Methoxy-3-thiophen-3-ylbenzyl)-5-(2-morpholin-4-ylethyl)-1,3-dihydroindol-2-one], the 50% inhibitory concentration (IC50) at EGFR [1] (Table 5) was over 50 µM; at PDGFR (setting [4]), over 100 µM; at EGFR [2] (setting [4]), over 100 µM.

Consider `COc1c(C(C)C)cc(CC2C(=O)Nc3ccccc32)cc1C(C)C` (stereo not shown) [AAI-10, 3-(3,5-Diisopropyl-4-methoxybenzyl)-1,3-dihydroindol-2-one], for which the IC50 with SKOV3 (Table 5) was 17.3 µM; in the assay with A431 (Table 5) it was 17.7 µM; at EGFR [1] (Table 5), over 50 µM; at PDGFR (setting [4]), over 100 µM; at EGFR [2] (setting [4]), over 100 µM.

Take `O=C1Nc2ccc(F)cc2C1Cc1ccc(O)c(C2CCCC2)c1` (stereo not shown) [AAI-11, 3-(3-Cyclopentyl-4-hydroxybenzyl)-5-fluoro-1,3-dihydroindol-2-one]: the IC50 in the assay on SKOV3 (Table 5) was 21.8 µM; in the assay on A431 (Table 5), 29.6 µM; on EGFR [1] (Table 5), over 50 µM; at PDGFR (setting [4]), over 100 µM; at EGFR [2] (setting [4]), over 100 µM.

Regarding `COc1cccc(-c2ccc3c(c2)NC(=O)C3Cc2ccccc2O)c1` (stereo not shown) [AAI-13, 3-(2-Hydroxybenzyl)-6-(3-methoxyphenyl)-1,3-dihydroindol-2-one], the IC50 in the assay with SKOV3 (Table 5) was over 50 µM; in the assay with A431 (Table 5), over 50 µM; at EGFR [1] (Table 5) it was over 50 µM; at PDGFR (setting [4]), over 100 µM; on EGFR [2] (setting [4]), over 100 µM.

For `Cc1cccc2c1C(Cc1ccc3[nH]ccc3c1)C(=O)N2` (stereo not shown) [AAI-16, 3-(1H-Indol-5-ylmethyl)-4-methyl-1,3-dihydroindol-2-one], the half-maximal inhibitory concentration (IC50) on EGFR [1] (Table 5) was over 50 µM; on PDGFR (setting [4]), over 100 µM; on EGFR [2] (setting [4]), over 100 µM.

On to `O=C1Nc2ccccc2C1Cc1ccc2[nH]ccc2c1` (stereo not shown) [AAI-17, 3-(1H-Indol-5-ylmethyl)-1,3-dihydroindol-2-one], for which the half-inhibitory concentration (IC50) on EGFR [1] (Table 5) is over 50 µM; on PDGFR (setting [4]) it was over 100 µM; at EGFR [2] (setting [4]), over 100 µM.

With `Cc1[nH]c(CC2C(=O)Nc3ccccc32)c(C)c1CCCN(C)C` (stereo not shown) [AAI-18, 3-[4-(3-Dimethylaminopropyl)-3,5-dimethyl-1H-pyrrol-2-ylmethyl]-1,3-dihydroindol-2-one], the IC50 was 43 µM in the assay on SKOV3 (Table 5); over 50 µM with A431 (Table 5); over 50 µM on EGFR [1] (Table 5); 0.56 µM at PDGFR (setting [4]); over 100 µM on EGFR [2] (setting [4]).

On to `COc1ccccc1-c1ccc2c(c1)NC(=O)C2Cc1[nH]c(C)c(CCCN(C)C)c1C` (stereo not shown) [AAI-20, 3-[4-(3-Dimethylamino-propyl)-3,5-dimethyl-1H-pyrrol-2-ylmethyl]-6-(2-methoxy-phenyl)-1,3-dihydro-indol-2-one], for which the IC50 in the assay on SKOV3 (Table 5) is 8.81 µM; with A431 (Table 5), 11.1 µM; on EGFR [1] (Table 5), 38.5 µM; at PDGFR (setting [4]), 2.13 µM; at EGFR [2] (setting [4]), over 100 µM.

On to `COc1cccc(-c2ccc3c(c2)NC(=O)C3Cc2[nH]c(C)c(CCCN(C)C)c2C)c1` (stereo not shown) [AAI-21, 3-[4-(3-Dimethylaminopropyl)-3,5-dimethyl-1H-pyrrol-2-ylmethyl]-6-(3-methoxyphenyl)-1,3-dihydroindol-2-one], for which the IC50 at EGFR [1] (Table 5) was 27.8 µM; on PDGFR (setting [4]), 3.42 µM; on EGFR [2] (setting [4]), 48.7 µM.

With `COc1ccc(-c2ccc3c(c2)NC(=O)C3Cc2[nH]c(C)c(CCCN(C)C)c2C)cc1` (stereo not shown) [AAI-22, 3-[4-(3-Dimethylaminopropyl)-3,5-dimethyl-1H-pyrrol-2-ylmethyl]-6-(4-methoxyphenyl)-1,3-dihydroindol-2-one], the IC50 with SKOV3 (Table 5) was over 50 µM; in the assay with A431 (Table 5), 32.9 µM; on EGFR [1] (Table 5), 27.6 µM; at PDGFR (setting [4]), 80 µM; on EGFR [2] (setting [4]), over 100 µM.

For `Cc1[nH]c(CC2C(=O)Nc3ccc(Cl)cc32)c(C)c1CCCN(C)C` (stereo not shown) [AAI-23, 5-Chloro-3-[4-(3-dimethylaminopropyl)-3,5-dimethyl-1H-pyrrol-2-ylmethyl]-1,3-dihydroindol-2-one], the values for the concentration for half-maximal inhibition (IC50) on EGFR [1] (Table 5), on PDGFR (setting [4]) and at EGFR [2] (setting [4]) were 32.2 µM, 0.81 µM and over 100 µM, respectively.

With `O=C1Nc2cc(-c3ccccc3)ccc2C1Cc1cccc(F)c1O` (stereo not shown) [AAI-24, 3-(3-Fluoro-2-hydroxybenzyl)-6-phenyl-1,3-dihydroindol-2-one], the half-inhibitory concentration (IC50) is over 50 µM at EGFR [1] (Table 5), over 100 µM at PDGFR (setting [4]) and over 100 µM on EGFR [2] (setting [4]).

In the case of `COc1ccc(CC2C(=O)Nc3cc(-c4ccccc4)ccc32)c(O)c1` (stereo not shown) [AAI-25, 3-(2-Hydroxy-4-methoxybenzyl)-6-phenyl-1,3-dihydroindol-2-one], the IC50 is over 50 µM at EGFR [1] (Table 5), over 100 µM at PDGFR (setting [4]) and over 100 µM on EGFR [2] (setting [4]).

Consider `Cc1cccc(CC2C(=O)Nc3cccc(CCO)c32)n1` (stereo not shown) [AAI-27, 4-(2-Hydroxyethyl)-3-(6-methylpyridin-2-ylmethyl)-1,3-dihydroindol-2-one], for which the IC50 is over 50 µM on EGFR [1] (Table 5), over 100 µM at PDGFR (setting [4]) and over 100 µM on EGFR [2] (setting [4]).

Regarding `CC(C)c1cccc(OCCc2cccc3c2CC(=O)N3)c1` [IN-001, 4-[2-(3-Isopropyl-phenoxy)-ethyl]-1,3-dihydro-indol-2-one], the IC50 in the assay on SKOV3 (Table 7) was 27.8 µM; in the assay with A431 (Table 7) it was 12.3 µM; at EGFR [1] (Table 7) it was 32.5 µM; at PDGFR (setting [3]), over 100 µM; at EGFR [2] (setting [3]) it was over 100 µM.

As to `O=C1Nc2cccc(CCO)c2/C1=C/c1ccccn1` [IN-005, 4-(2-Hydroxy-ethyl)-3-pyridin-2-ylmethylene-1,3-dihydro-indol-2-one], the values for the concentration for half-maximal inhibition (IC50) on EGFR [1] (Table 7), at PDGFR (setting [3]) and at EGFR [2] (setting [3]) were 3 µM, over 100 µM and over 100 µM, respectively.

For `Cc1[nH]c(/C=C2\C(=O)Nc3cccc(CCOc4cccc(C(C)C)c4)c32)c(C)c1CCCN(C)C` [IN-023], the IC50 on EGFR [1] (Table 7) is 28.7 µM; on PDGFR (setting [3]), 49.1 µM; at EGFR [2] (setting [3]), over 100 µM.

Consider `Cc1[nH]c(/C=C2\C(=O)Nc3cccc(CCOc4ccc(C(C)C)cc4)c32)c(C)c1CCC(=O)O` [IN-024, 3-(5-{4-[2-(4-Isopropyl-phenoxy)-ethyl]-2-oxo-1,2-dihydro-indol-3-ylidenemethyl}-2,4-dimethyl-1H-pyrro-3-yl)-propionic acid], for which the half-maximal inhibitory concentration (IC50) was over 50 µM at EGFR [1] (Table 7), 97.5 µM at PDGFR (setting [3]) and over 100 µM on EGFR [2] (setting [3]).
